{"source": "patent US20080038289A1", "about": "“Antitumor Agent” (priority 2004, published 2008)", "key": {"[1]": {"test": "Toxicity on oral administration to mice", "format": "in vivo", "conditions": "orally administered, 25 mg/mouse/day"}, "[2]": {"tested_on": "IMC carcinoma tumor cells", "test": "IMC solid tumor growth in CDF1 mice, SBS orally (Example 10)", "format": "in vivo", "conditions": "about 15.6 mg/kg/day orally in peanut oil with 10% ethanol; three weeks after transplantation of IMC", "description": "As ICR mice (Japan SLC, Inc.), 5-week old female mice were purchased, and the animals were used at 6 weeks old. Sarcoma-180 (hereinafter, S-180) tumor cells were transplanted into an abdominal cavity of the ICR mice to give an ascites, and the ascites was passaged by transplanting into other mice every 7 days. An ascites on day 7 after passage was collected, washed with a phosphate buffered saline by centrifugation, and suspended in the same buffer. The number of cells was counted, and the suspension was adjusted to have a density of 5×10^7 cells/mL. Into ICR mice at right abdominal part was subcutaneously transplanted 0.1 mL of the cell suspension, and the size of a solid tumor after 7 days was measured. […] The size of the tumor was measured after four weeks from transplantation of S-180. In addition, as the size of the tumor, a length and a width were measured, to obtain the volume according to the following equation, followed by comparison. […]\nThe tumor-suppressing activity was calculated according to the following equation. […]\nAs CDF1 mice (Japan SLC, Inc.), 6-week old female mice were purchased, and the animals were used at 7 weeks olds. […] The number of cells was counted. […] Seven days after transplantation, take of a tumor was confirmed, and the size of a solid tumor was measured. […]"}, "[3]": {"tested_on": "HL-60 cells (human leukemia cells)", "test": "Apoptosis induction in HL-60 cells, propidium iodide (Example 9)", "format": "cell-based", "conditions": "20 μM, incubation for 6 hours; control 9.3", "experimental": "HL-60 cells (human leukemia cells) were suspended in an RPMI-1640 with 10% fetal bovine serum added thereto, and the number of cells was counted. The suspension was adjusted to have a density of 5×10^5 cells/mL. Each 2 mL of the suspension was dispensed into Petri dishes. SBS prepared in Preparation Example 3 was diluted with dimethyl sulfoxide to 2 mM, and each 20 μL of the suspension was added thereto to have a final concentration of 20 μM. Only dimethyl sulfoxide was added to a control. Incubation was performed for 6 hours under the conditions of 37° C. and 5% CO2, and the cells were recovered, and washed with a phosphate buffered saline (PBS) by centrifugation. Four-percent paraformaldehyde was added to the cells, and the cells were allowed to stand at room temperature for 30 minutes to be fixed. After centrifugation, the supernatant was removed, and a PBS was added thereto, and the mixture was centrifuged and washed, and the cells were suspended in 200 μL of a PBS. Five-hundred microliters of 0.05 mg/mL propidium iodide was added thereto, and the mixture was incubated at 4° C. for 10 minutes. Thereafter, the number of whole cells and the number of cells which had undergone apoptosis were measured, and a ratio of induction of apoptosis was calculated according to the following equation (Table 11). […]"}}}
{"smiles": "C=CC(C)(O)CC/C=C(\\C)CCCC(C)(O)CCCC(C)(O)CCCC(C)(O)CCCC(C)(O)CCCC(C)(O)CCCC(C)(O)CCC=C(C)C", "note": "(stereo not shown) [SBS, hypsiziprenol A9]", "values": [{"measurement": "toxicity", "setting": "[1]", "result": "toxicity is not observed"}, {"measurement": "Tumor Volume (Mean ± SD)", "setting": "[2]", "result": "534.5 ± 92.3", "unit": "mm^3"}, {"measurement": "Tumor-Suppressing Activity (%)", "setting": "[2]", "result": 46.2, "unit": "%"}, {"measurement": "Apoptosis-Inducing Ratio (%)", "setting": "[3]", "result": 30.1, "unit": "%"}]}
